The logP is a log measure of how a compound divides between an organic and an aqueous phase. Read a high logP as a more lipophilic compound.

The data set is described as follows: method code SF-HPLC, from DOI: 10.1002/ps.2780400103.
`CC(C)Oc1ccc(OCC(OC(=O)n2ccnc2)C(C)(C)C)cc1` (configuration not stated) showed a logP of 4.08.
To `CCOc1ccc(OCC(OC(=O)n2ccnc2)C(C)(C)C)cc1` (configuration not stated) belongs 3.86.
To `CC(C)(C)c1ccc(OCC(OC(=O)n2ccnc2)C(C)(C)C)cc1` (configuration not stated) belongs 4.82; to `CC(C)(C)C(COc1ccc(-c2ccccc2)cc1)OC(=O)n1ccnc1` (configuration not stated), 4.56.
In the case of `CC(C)(C)C(COc1ccccc1)OC(=O)n1ccnc1` (configuration not stated) it was 3.58; in that of `CCCOc1ccc(OCC(OC(=S)n2ccnc2)C(C)(C)C)cc1` (configuration not stated), 5.03.
Consider `CCCCOc1ccc(OCC(OC(=O)n2ccnc2)C(C)(C)C)cc1` (configuration not stated), for which the logP was determined as 4.29.
In the case of `CC(C)c1ccc(OCC(OC(=S)n2ccnc2)C(C)(C)C)cc1` (configuration not stated) it was 5.21.
To `CC(C)(C)C(COc1ccc(F)cc1)OC(=O)n1ccnc1` (configuration not stated) belongs 3.68.
On to `Cc1ccc(OCC(OC(=S)n2ccnc2)C(C)(C)C)cc1` (configuration not stated), for which the logP turned out to be 4.66.
In the case of `CCCc1ccc(OCC(OC(=O)n2ccnc2)C(C)(C)C)cc1` (configuration not stated) it was 4.73.
In the case of `CC(C)(C)C(COc1ccc(F)cc1)OC(=S)n1ccnc1` (configuration not stated) it was 4.37; in that of `CC(C)(C)C(COc1ccc(Cl)cc1)OC(=S)n1ccnc1` (configuration not stated), 4.96; in that of `CC(C)(C)C(COc1ccc(Br)cc1)OC(=O)n1ccnc1` (configuration not stated), 4.37.
In the case of `CSc1ccc(OCC(OC(=O)n2ccnc2)C(C)(C)C)cc1` (configuration not stated) it was 4.03; in that of `CC(C)(C)C(COc1ccc([N+](=O)[O-])cc1)OC(=O)n1ccnc1` (configuration not stated), 3.35.
On to `CC(C)(C)C(COc1ccccc1)OC(=S)n1ccnc1` (configuration not stated), for which the log partition coefficient (logP) was determined as 4.27.
In the case of `COc1ccc(OCC(OC(=S)n2ccnc2)C(C)(C)C)cc1` (configuration not stated) it was 4.31.
To `COc1ccc(OCC(OC(=O)n2ccnc2)C(C)(C)C)cc1` (configuration not stated) belongs 3.46.
To `CCc1ccc(OCC(OC(=S)n2ccnc2)C(C)(C)C)cc1` (configuration not stated) belongs 5.09; to `COC(=O)c1ccc(OCC(OC(=S)n2ccnc2)C(C)(C)C)cc1` (configuration not stated), 4.77; to `CCOc1ccc(OCC(OC(=S)n2ccnc2)C(C)(C)C)cc1` (configuration not stated), 4.58.
For the compound `CC(C)(C)C(COc1ccc(C#N)cc1)OC(=O)n1ccnc1` (configuration not stated), the logP was 3.15.
To `CCc1ccc(OCC(OC(=O)n2ccnc2)C(C)(C)C)cc1` (configuration not stated) belongs 4.1; to `COC(=O)c1ccc(OCC(OC(=O)n2ccnc2)C(C)(C)C)cc1` (configuration not stated), 3.59.
In the case of `CC(C)c1ccc(OCC(OC(=O)n2ccnc2)C(C)(C)C)cc1` (configuration not stated) it was 4.77.
In the case of `CC(C)(C)C(COc1ccc(S(C)(=O)=O)cc1)OC(=O)n1ccnc1` (configuration not stated) it was 2.59; in that of `CC(C)(C)C(COc1ccc(-c2ccccc2)cc1)OC(=S)n1ccnc1` (configuration not stated), 6.06; in that of `CCOC(=O)c1ccc(OCC(OC(=O)n2ccnc2)C(C)(C)C)cc1` (configuration not stated), 4.12.
As for `CC(C)(C)C(COc1ccc(Br)cc1)OC(=S)n1ccnc1` (configuration not stated), the logP came to 5.11.
To `CCCCc1ccc(OCC(OC(=O)n2ccnc2)C(C)(C)C)cc1` (configuration not stated) belongs 4.97; to `CC(C)(C)C(COc1ccc(Cl)cc1)OC(=O)n1ccnc1` (configuration not stated), 4.19.
In the case of `CC(C)(C)C(COc1ccc(I)cc1)OC(=O)n1ccnc1` (configuration not stated) it was 4.3; in that of `CCCOc1ccc(OCC(OC(=O)n2ccnc2)C(C)(C)C)cc1` (configuration not stated), 4.1.
To `CCCc1ccc(OCC(OC(=S)n2ccnc2)C(C)(C)C)cc1` (configuration not stated) belongs 5.77; to `CC(C)(C)C(COc1ccc(C(F)(F)F)cc1)OC(=O)n1ccnc1` (configuration not stated), 4.15.
With `CCCCCc1ccc(OCC(OC(=O)n2ccnc2)C(C)(C)C)cc1` (configuration not stated), the logP was 5.26.
